Results taken from US8202887B2, “2-(substituted-amino)-benzothiazole sulfonamide HIV protease inhibitors” (Janssen R&D Ireland, priority 2006, dated 2012).
Where two headings read alike, the source gives them in different places.

Assays:
Format in all cases: cell-based
[1] = tested on: clinically isolated HIV strain B; assay: Cellular anti-viral assay in MT4-LTR-EGFP cells, mutant strain B; conditions: for EC50: Human immunodeficiency virus 1, 72 h, read-out: pEC50 virus strain B (converted); for pEC50 virus strain B: MT4-LTR-EGFP cells, three days, GFP signal
Experimental: (§1) Because of the increasing emergence of drug resistant HIV strains, the present compounds were tested for their potency against clinically isolated HIV strains harboring several mutations. These mutations are associated with resistance to protease inhibitors and result in viruses that show various degrees of phenotypic cross-resistance to the currently commercially available drugs such as for instance saquinavir, ritonavir, nelfinavir, indinavir and amprenavir. The viral strains coded as A, B, C and D contain mutations as indicated below in Table 2.
(§2) The cellular assay was performed according to the following procedure. HIV- or mock-infected MT4-LTR-EGFP cells were incubated for three days in the presence of various concentrations of the compounds according to the invention. Upon infection, the viral tat protein activates the GFP reporter. At the end of the incubation period, the GFP signal was measured. In the virus control samples (in the absence of any inhibitor) the maximal fluorescent signal was obtained. The inhibitory activity of the compound was monitored on the virus-infected cells and was expressed as EC50. These values represent the amount of the compound required to protect 50% of the cells from virus infection. (Table 3).

[2] = tested on: wild type laboratory HIV strain (WT IIIB-2-001); assay: Cellular anti-viral assay in MT4-LTR-EGFP cells, wild type strain; conditions: for EC50: Human immunodeficiency virus 1, IIIB, 72 h, read-out: pEC50 WT-IIIB-2-001 (converted)
Experimental: The compounds were tested in a cellular assay using the MT4-LTR-EGFP cells for anti-viral activity.
as §2, with “In the virus control samples (in the absence of any inhibitor) the maximal fluorescent signal was obtained.” left out, “infection.” for “infection. (Table 3).”

[3] = tested on: clinically isolated HIV strain C; assay: Cellular anti-viral assay in MT4-LTR-EGFP cells, mutant strain C; conditions: for EC50: Human immunodeficiency virus 1, 72 h, read-out: pEC50 virus strain C (converted); for pEC50 virus strain C: MT4-LTR-EGFP cells, three days, GFP signal
Experimental: as §1, §2

[4] = tested on: clinically isolated HIV strain A; assay: Cellular anti-viral assay in MT4-LTR-EGFP cells, mutant strain A; conditions: for EC50: Human immunodeficiency virus 1, 72 h, read-out: pEC50 virus strain A (converted); for pEC50 virus strain A: MT4-LTR-EGFP cells, three days, GFP signal
Experimental: as §1, §2

[5] = tested on: clinically isolated HIV strain D; assay: Cellular anti-viral assay in MT4-LTR-EGFP cells, mutant strain D; conditions: for EC50: Human immunodeficiency virus 1, 72 h, read-out: pEC50 virus strain D (converted); for pEC50 virus strain D: MT4-LTR-EGFP cells, three days, GFP signal
Experimental: as §1, §2

[6] = MT4-LTR-EGFP cells, three days, GFP signal

| Structure (SMILES) | EC50 [1] [nM] | EC50 [2, 6] [nM] | EC50 [3] [nM] | EC50 [4] [nM] | EC50 [5] [nM] | pEC50 virus strain D [5] | pEC50 virus strain B [1] | pEC50 WT-IIIB-2-001 [2, 6] | pEC50 virus strain C [3] | pEC50 virus strain A [4] | pEC50 WT-IIIB-2-001 [2] |
| --- | --- | --- | --- | --- | --- | --- | --- | --- | --- | --- | --- |
| COCCN1CCC(Nc2nc3ccc(S(=O)(=O)N(CC(C)C)C[C@@H](O)[C@H](Cc4ccccc4)NC(=O)O[C@H]4CO[C@H]5OCC[C@H]54)cc3s2)C1 (stereo in doubt) [Compound 17, [1-Benzyl-2-hydroxy-3-(isobutyl-{2-[1-(2-methoxy-ethyl)-pyrrolidin-3-ylamino]-benzothiazole-6-sulfonyl}-amino)-propyl]-carbamic acid hexahydro-furo[2,3-b]furan-3-yl ester] | 17 | 18.6 | 3390 | 13.2 |  |  |  |  |  |  |  |
| CC(C)CN(C[C@@H](O)[C@H](Cc1ccccc1)NC(=O)O[C@H]1CO[C@H]2OCC[C@H]21)S(=O)(=O)c1ccc2nc(NC3CCN(Cc4cccnc4)C3)sc2c1 (stereo in doubt) [Compound 21, (1-Benzyl-2-hydroxy-3-{isobutyl-[2-(1-pyridin-3-ylmethyl-pyrrolidin-3-ylamino)-benzothiazole-6-sulfonyl}-amino]-propyl)-carbamic acid hexahydro-furo[2,3-b]furan-3-yl ester] | 14.5 | 11.2 | 1820 | 4.9 | 7.08 |  |  |  |  |  |  |
| CC(C)CN(C[C@@H](O)[C@H](Cc1ccccc1)NC(=O)O[C@H]1CO[C@H]2OCC[C@H]21)S(=O)(=O)c1ccc2nc(NC3CCN(C(C)C)CC3)sc2c1 [Compound 5] |  |  |  |  |  | 7.86 | 7.57 | 7.72 | 5.38 | 7.89 |  |
| CC(C)CN1CCC(Nc2nc3ccc(S(=O)(=O)N(CC(C)C)C[C@@H](O)[C@H](Cc4ccccc4)NC(=O)O[C@H]4CO[C@H]5OCC[C@H]54)cc3s2)CC1 [Compound 6] |  |  |  |  |  | 7.86 | 7.58 | 8.31 | 5.46 | 7.84 |  |
| COCCN1CCC(Nc2nc3ccc(S(=O)(=O)N(CC(C)C)C[C@@H](O)[C@H](Cc4ccccc4)NC(=O)O[C@H]4CO[C@H]5OCC[C@H]54)cc3s2)CC1 [Compound 8] |  |  |  |  |  |  | 7.00 | 7.44 | 5.25 | 6.65 |  |
| CC(C)CN(C[C@@H](O)[C@H](Cc1ccccc1)NC(=O)O[C@H]1CO[C@H]2OCC[C@H]21)S(=O)(=O)c1ccc2nc(NC3CCN(C(=O)CN(C)C)CC3)sc2c1 [Compound 9] |  |  |  |  |  | 6.99 | 6.59 | 6.56 | 5.00 | 6.99 |  |
| CC(C)CN(C[C@@H](O)[C@H](Cc1ccccc1)NC(=O)O[C@H]1CO[C@H]2OCC[C@H]21)S(=O)(=O)c1ccc2nc(NC3CCN(C(=O)CN4CCOCC4)CC3)sc2c1 [Compound 10] |  |  |  |  |  | 6.62 | 6.52 | 6.53 | 5.11 | 6.84 |  |
| CC(C)CN(C[C@@H](O)[C@H](Cc1ccccc1)NC(=O)O[C@H]1CO[C@H]2OCC[C@H]21)S(=O)(=O)c1ccc2nc(NC3CCN(Cc4ccccc4)CC3)sc2c1 [Compound 11, (1-Benzyl-3-{[2-(1-benzyl-piperidin-4-ylamino)-benzothiazole-6-sulfonyl]-isobutyl-amino}-2-hydroxy-propyl)-carbamic acid hexahydro-furo[2,3-b]furan-3-yl ester] | 33.9 | 2.51 | 5750 | 22.4 | 18.6 |  |  |  |  |  |  |
| CC(C)CN(C[C@@H](O)[C@H](Cc1ccccc1)NC(=O)O[C@H]1CO[C@H]2OCC[C@H]21)S(=O)(=O)c1ccc2nc(NC3CCN(Cc4ccncc4)CC3)sc2c1 [Compound 12] |  |  |  |  |  | 8.27 | 7.71 | 8.34 | 5.19 | 8.26 |  |
| CC(C)CN(C[C@@H](O)[C@H](Cc1ccccc1)NC(=O)O[C@H]1CO[C@H]2OCC[C@H]21)S(=O)(=O)c1ccc2nc(NC3CCN(Cc4ccccn4)CC3)sc2c1 [Compound 13] |  |  |  |  |  | 7.98 | 7.94 | 8.18 | 6.04 | 8.06 |  |
| CC(C)CN(C[C@@H](O)[C@H](Cc1ccccc1)NC(=O)O[C@H]1CO[C@H]2OCC[C@H]21)S(=O)(=O)c1ccc2nc(NC3CCN(Cc4cccnc4)CC3)sc2c1 [Compound 14] |  |  |  |  |  | 7.84 | 7.78 |  | 5.90 | 7.85 | 7.85 |
| CC(C)CN(C[C@@H](O)[C@H](Cc1ccccc1)NC(=O)O[C@H]1CO[C@H]2OCC[C@H]21)S(=O)(=O)c1ccc2nc(NC3CCN(Cc4cncs4)CC3)sc2c1 [Compound 15] |  |  |  |  |  | 8.24 | 7.71 |  | 5.46 | 8.38 | 8.24 |
| CC(C)CN(C[C@@H](O)[C@H](Cc1ccccc1)NC(=O)O[C@H]1CO[C@H]2OCC[C@H]21)S(=O)(=O)c1ccc2nc(NC3CCNC3)sc2c1 (stereo partly shown) [Compound 16] |  |  |  |  |  |  | 5.89 | 6.82 | 5.90 | 5.93 |  |
| COCCN1CCC(Nc2nc3ccc(S(=O)(=O)N(CC(C)C)CC(O)C(Cc4ccccc4)NC(=O)OC4COC5OCCC45)cc3s2)C1 (stereo not shown) [Compound 18] |  |  |  |  |  |  | 7.24 | 7.76 | 5.32 | 7.61 |  |
| CC(C)CN1CCC(Nc2nc3ccc(S(=O)(=O)N(CC(C)C)CC(O)C(Cc4ccccc4)NC(=O)OC4COC5OCCC45)cc3s2)C1 (stereo not shown) [Compound 19] |  |  |  |  |  | 7.75 | 7.33 | 8.42 | 5.35 | 7.84 |  |
| CC(C)CN1CCC(Nc2nc3ccc(S(=O)(=O)N(CC(C)C)CC(O)C(Cc4ccccc4)NC(=O)OC4COC5OCCC45)cc3s2)C1 (stereo not shown) [Compound 20] |  |  |  |  |  | 8.12 | 7.84 | 8.27 | 5.59 | 8.23 |  |
| CC(C)CN(CC(O)C(Cc1ccccc1)NC(=O)OC1COC2OCCC12)S(=O)(=O)c1ccc2nc(NC3CCN(Cc4ccncc4)C3)sc2c1 (stereo not shown) [Compound 22] |  |  |  |  |  |  | 7.77 | 7.71 | 6.19 |  |  |
| CC(C)CN(CC(O)C(Cc1ccccc1)NC(=O)OC1COC2OCCC12)S(=O)(=O)c1ccc2nc(NC3CCN(Cc4cncs4)C3)sc2c1 (stereo not shown) [Compound 23] |  |  |  |  |  | 8.27 | 7.56 | 7.97 | 5.36 | 8.56 |  |
| CC(C)CN(CC(O)C(Cc1ccccc1)NC(=O)OC1COC2OCCC12)S(=O)(=O)c1ccc2nc(NC3CCN(Cc4cncs4)C3)sc2c1 (stereo not shown) [Compound 24] |  |  |  |  |  | 7.89 | 7.70 | 8.22 | 5.08 | 7.91 |  |
| CC(C)CN(CC(O)C(Cc1ccccc1)NC(=O)OC1COC2OCCC12)S(=O)(=O)c1ccc2nc(NC3CCN(Cc4ccccn4)C3)sc2c1 (stereo not shown) [Compound 25] |  |  |  |  |  | 5.41 | 5.04 | 5.77 | <4.49 | 5.59 |  |
